Measurements: PubChem BioAssay AID1963830 (Molecular Pharmacology Branch, DTP, NCI, 2024)

Test system: 922993-354-T-J3-PDC complex spheroid viability
Experiment: Anticancer human tumor 922993-354-T-J3-PDC patient-derived endometrial carcinoma cell line growth inhibition [POLQ]
Details: for IC50: curve of first compound; for viability, T/C: stronger effect = lower value
How it was run: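 Complex spheroid viability model combining PDC tumour cells with endothelial (HUVEC) and MSC stromal cells. Novobiocin, ART-558 or RP6685 were tested singly and in combination with standard and investigational anticancer drugs. Each was titrated in half-log steps from near clinical Cmax, or from 10 microM where Cmax was unknown.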

[1] = second compound 0.0316 µM, first compound 0.0316 µM
[2] = second compound 0.0316 µM, first compound 0.1 µM
[3] = second compound 0.0316 µM, first compound 0.316 µM
[4] = second compound 0.0316 µM, first compound 1 µM
[5] = second compound 0.0316 µM, first compound 3.16 µM
[6] = second compound 0.0316 µM, first compound 10 µM
[7] = second compound 0.1 µM, first compound 0.0316 µM
[8] = second compound 0.1 µM, first compound 0.1 µM
[9] = second compound 0.1 µM, first compound 0.316 µM
[10] = second compound 0.1 µM, first compound 1 µM
[11] = second compound 0.1 µM, first compound 3.16 µM
[12] = second compound 0.1 µM, first compound 10 µM
[13] = second compound 0.316 µM, first compound 0.0316 µM
[14] = second compound 0.316 µM, first compound 0.1 µM
[15] = second compound 0.316 µM, first compound 0.316 µM
[16] = second compound 0.316 µM, first compound 1 µM
[17] = second compound 0.316 µM, first compound 3.16 µM
[18] = second compound 0.316 µM, first compound 10 µM
[19] = second compound 1 µM, first compound 0.0316 µM
[20] = second compound 1 µM, first compound 0.1 µM
[21] = second compound 1 µM, first compound 0.316 µM
[22] = second compound 1 µM, first compound 1 µM
[23] = second compound 1 µM, first compound 3.16 µM
[24] = second compound 1 µM, first compound 10 µM
[25] = second compound 3.16 µM, first compound 0.0316 µM
[26] = second compound 3.16 µM, first compound 0.1 µM
[27] = second compound 3.16 µM, first compound 0.316 µM
[28] = second compound 3.16 µM, first compound 1 µM
[29] = second compound 3.16 µM, first compound 3.16 µM
[30] = second compound 3.16 µM, first compound 10 µM
[31] = second compound 10 µM, first compound 0.0316 µM
[32] = second compound 10 µM, first compound 0.1 µM
[33] = second compound 10 µM, first compound 0.316 µM
[34] = second compound 10 µM, first compound 1 µM
[35] = second compound 10 µM, first compound 3.16 µM
[36] = second compound 10 µM, first compound 10 µM
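Further: spheroids exposed to the agents for one week.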
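Wherever viability, T/C is given: 100% = DMSO vehicle control wells.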

## CC(=O)O[C@H]1C(=O)[C@@]2(C)[C@H]([C@H](OC(=O)c3ccccc3)[C@]3(O)C[C@H](OC(=O)[C@H](O)[C@@H](NC(=O)c4ccccc4)c4ccccc4)C(C)=C1C3(C)C)[C@]1(OC(C)=O)CO[C@@H]1C[C@@H]2O + Nc1ccc(C#CCN(C(=O)Cc2ncc(C(F)(F)F)cc2C(F)(F)F)c2ccc(F)cc2)nn1
Second compound 0.0316 µM
  IC50: > 3 µM
Second compound 0.1 µM
  IC50: > 3 µM
Second compound 0.316 µM
  IC50: > 3 µM
Second compound 1 µM
  IC50: > 3 µM
Second compound 3.16 µM
  IC50: > 3 µM
Second compound 10 µM
  IC50: > 3 µM
Second compound 0.0316 µM, first compound 0.00949 µM
  viability, T/C: 105%
Second compound 0.0316 µM, first compound 0.03 µM
  viability, T/C: 107%
Second compound 0.0316 µM, first compound 0.0949 µM
  viability, T/C: 102%
Second compound 0.0316 µM, first compound 0.3 µM
  viability, T/C: 105%
Second compound 0.0316 µM, first compound 0.949 µM
  viability, T/C: 99%
Second compound 0.0316 µM, first compound 3 µM
  viability, T/C: 73.4%
Second compound 0.1 µM, first compound 0.00949 µM
  viability, T/C: 105%
Second compound 0.1 µM, first compound 0.03 µM
  viability, T/C: 106%
Second compound 0.1 µM, first compound 0.0949 µM
  viability, T/C: 106%
Second compound 0.1 µM, first compound 0.3 µM
  viability, T/C: 106%
Second compound 0.1 µM, first compound 0.949 µM
  viability, T/C: 99.9%
Second compound 0.1 µM, first compound 3 µM
  viability, T/C: 72.4%
Second compound 0.316 µM, first compound 0.00949 µM
  viability, T/C: 107%
Second compound 0.316 µM, first compound 0.03 µM
  viability, T/C: 107%
Second compound 0.316 µM, first compound 0.0949 µM
  viability, T/C: 104%
Second compound 0.316 µM, first compound 0.3 µM
  viability, T/C: 103%
Second compound 0.316 µM, first compound 0.949 µM
  viability, T/C: 96.6%
Second compound 0.316 µM, first compound 3 µM
  viability, T/C: 78.1%
Second compound 1 µM, first compound 0.00949 µM
  viability, T/C: 107%
Second compound 1 µM, first compound 0.03 µM
  viability, T/C: 100%
Second compound 1 µM, first compound 0.0949 µM
  viability, T/C: 104%
Second compound 1 µM, first compound 0.3 µM
  viability, T/C: 107%
Second compound 1 µM, first compound 0.949 µM
  viability, T/C: 91.7%
Second compound 1 µM, first compound 3 µM
  viability, T/C: 71.4%
Second compound 3.16 µM, first compound 0.00949 µM
  viability, T/C: 101%
Second compound 3.16 µM, first compound 0.03 µM
  viability, T/C: 105%
Second compound 3.16 µM, first compound 0.0949 µM
  viability, T/C: 98.3%
Second compound 3.16 µM, first compound 0.3 µM
  viability, T/C: 101%
Second compound 3.16 µM, first compound 0.949 µM
  viability, T/C: 83.7%
Second compound 3.16 µM, first compound 3 µM
  viability, T/C: 69.8%
Second compound 10 µM, first compound 0.00949 µM
  viability, T/C: 90.6%
Second compound 10 µM, first compound 0.03 µM
  viability, T/C: 84.3%
Second compound 10 µM, first compound 0.0949 µM
  viability, T/C: 69.5%
Second compound 10 µM, first compound 0.3 µM
  viability, T/C: 69.8%
Second compound 10 µM, first compound 0.949 µM
  viability, T/C: 60.8%
Second compound 10 µM, first compound 3 µM
  viability, T/C: 54.8%

## CC1COCCN1c1cc(C2(S(C)(=N)=O)CC2)nc(-c2ccnc3[nH]ccc23)n1 (stereo unspecified) + Cc1cccc(N(C)C(=O)C2C(O)CCN2c2nc(C)cc(C(F)(F)F)c2C#N)c1
Second compound 0.0316 µM
  IC50: > 10 µM
Second compound 0.1 µM
  IC50: > 10 µM
Second compound 0.316 µM
  IC50: > 10 µM
Second compound 1 µM
  IC50: > 10 µM
Second compound 3.16 µM
  IC50: 8.08 µM
Second compound 10 µM
  IC50: 4.88 µM
[1]
  viability, T/C: 99.8%
[2]
  viability, T/C: 95.3%
[3]
  viability, T/C: 95%
[4]
  viability, T/C: 105%
[5]
  viability, T/C: 93.3%
[6]
  viability, T/C: 53%
[7]
  viability, T/C: 112%
[8]
  viability, T/C: 95.4%
[9]
  viability, T/C: 97.1%
[10]
  viability, T/C: 99.7%
[11]
  viability, T/C: 82.6%
[12]
  viability, T/C: 62.9%
[13]
  viability, T/C: 102%
[14]
  viability, T/C: 100%
[15]
  viability, T/C: 104%
[16]
  viability, T/C: 101%
[17]
  viability, T/C: 77.5%
[18]
  viability, T/C: 56.8%
[19]
  viability, T/C: 96.5%
[20]
  viability, T/C: 105%
[21]
  viability, T/C: 99.3%
[22]
  viability, T/C: 88.9%
[23]
  viability, T/C: 86.9%
[24]
  viability, T/C: 56%
[25]
  viability, T/C: 101%
[26]
  viability, T/C: 96.8%
[27]
  viability, T/C: 103%
[28]
  viability, T/C: 93.1%
[29]
  viability, T/C: 85.7%
[30]
  viability, T/C: 42.1%
[31]
  viability, T/C: 98.5%
[32]
  viability, T/C: 94%
[33]
  viability, T/C: 96.8%
[34]
  viability, T/C: 91.5%
[35]
  viability, T/C: 71.4%
[36]
  viability, T/C: 14.7%

## COc1ccc([C@@H](O)c2cc(-c3ncnc4cc(N5CCOCC5)ccc34)c(F)cc2Cl)nn1 + Nc1ccc(C#CCN(C(=O)Cc2ncc(C(F)(F)F)cc2C(F)(F)F)c2ccc(F)cc2)nn1
Second compound 0.0316 µM
  IC50: > 10 µM
Second compound 0.1 µM
  IC50: > 10 µM
Second compound 0.316 µM
  IC50: > 10 µM
Second compound 1 µM
  IC50: > 10 µM
Second compound 3.16 µM
  IC50: > 10 µM
Second compound 10 µM
  IC50: > 10 µM
[1]
  viability, T/C: 103%
[2]
  viability, T/C: 103%
[3]
  viability, T/C: 98%
[4]
  viability, T/C: 100%
[5]
  viability, T/C: 91.3%
[6]
  viability, T/C: 73.8%
[7]
  viability, T/C: 106%
[8]
  viability, T/C: 104%
[9]
  viability, T/C: 100%
[10]
  viability, T/C: 97.9%
[11]
  viability, T/C: 93.7%
[12]
  viability, T/C: 75.5%
[13]
  viability, T/C: 106%
[14]
  viability, T/C: 99.2%
[15]
  viability, T/C: 101%
[16]
  viability, T/C: 97.4%
[17]
  viability, T/C: 87.3%
[18]
  viability, T/C: 74.9%
[19]
  viability, T/C: 105%
[20]
  viability, T/C: 102%
[21]
  viability, T/C: 99.1%
[22]
  viability, T/C: 93.5%
[23]
  viability, T/C: 89.4%
[24]
  viability, T/C: 74.9%
[25]
  viability, T/C: 97.1%
[26]
  viability, T/C: 97%
[27]
  viability, T/C: 93.5%
[28]
  viability, T/C: 92.5%
[29]
  viability, T/C: 86.5%
[30]
  viability, T/C: 72%
[31]
  viability, T/C: 97.3%
[32]
  viability, T/C: 89%
[33]
  viability, T/C: 91.4%
[34]
  viability, T/C: 91.9%
[35]
  viability, T/C: 90.3%
[36]
  viability, T/C: 68.8%
